Reference: patent US6096749A, “Pyrrolopyrimidine derivatives having pharmacological activity” (Novartis Corporation, priority 1994, dated 2000)
“And” between values parts separate entries of the source, which are not always exact repeats. Identical values can stand only once. Like-named read-outs stand apart in the source and are kept apart here.

How the values were obtained:
[1] = molecular target: T1, EGF-R ICD (Homo sapiens, UniProt P00533); experiment: Inhibitory action on EGF-R ICD (intracellular domains of the EGF receptor) tyrosine protein kinase, Test A; type: biochemical; conditions: concentration at which inhibition is half the maximum inhibition
T1 construct: recombinant intracellular domains of the EGF-receptor (EGF-R ICD)
T1 sequence (P00533 669-1210 limits assumed): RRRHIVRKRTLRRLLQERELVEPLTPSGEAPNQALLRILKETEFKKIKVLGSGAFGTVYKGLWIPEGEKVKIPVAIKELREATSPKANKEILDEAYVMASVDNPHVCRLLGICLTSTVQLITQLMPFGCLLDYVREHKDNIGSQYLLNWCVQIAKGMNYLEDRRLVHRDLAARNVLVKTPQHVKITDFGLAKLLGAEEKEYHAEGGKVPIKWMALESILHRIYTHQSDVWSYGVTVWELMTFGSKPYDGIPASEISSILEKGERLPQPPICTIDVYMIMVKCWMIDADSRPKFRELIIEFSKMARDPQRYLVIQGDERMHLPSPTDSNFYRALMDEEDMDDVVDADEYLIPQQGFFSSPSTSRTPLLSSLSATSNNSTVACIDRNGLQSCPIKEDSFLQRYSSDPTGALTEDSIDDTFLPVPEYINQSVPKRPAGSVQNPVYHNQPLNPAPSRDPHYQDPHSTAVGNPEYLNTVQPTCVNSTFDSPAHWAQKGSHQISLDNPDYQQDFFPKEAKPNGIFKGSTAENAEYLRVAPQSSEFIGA
Text: Test A) Inhibitory action on EGF-R ICD (ICD=intracellular domains): The test system is described above. The result is given as IC50 in μM (concentration of active ingredient at which inhibition is half the maximum inhibition).
The test system is described above. The result is given as IC50 in μM (concentration of active ingredient at which inhibition is half the maximum inhibition).

[2] = test system: BALB/c mouse keratinocyte cell line (MK cells); experiment: Inhibitory action on the growth of MK cells (BALB/MK), Test B; type: cell-based; conditions: 72 h, three days incubation, methylene blue staining, Examples 16 to 22
Protocol: The test compounds (dissolved in DMSO) are added in a series of concentrations (dilution series), so that the final concentration of DMSO is not grater than 1% (v/v). […] The growth of the MK cells is measured by means of methylene blue staining: after incubation, the cells are fixed with glutaraldehyde, washed with water and stained with 0.05% methylene blue. […] IC50 values are calculated by means of a computer-assisted system using the formula:
IC50 =(ODtest -ODstart)/(ODcontrol
Test B) Inhibitory action on the growth of MK cells: The test system is described in detail above. The result is given as IC50 in μM (concentration of active ingredient at which inhibition is half the maximum inhibition).

[3] = Example 32, table 3, read-out: IC50 (inhibitory action on the intracellular domains of EGF-R (ICD))
[4] = Examples 16 to 22, read-out: IC50 (Test A: inhibitory action on EGF-R ICD)

IC50 [1, 3] | IC50 [1, 4] [nM] | SMILES | IC50 [2] [µM]
430 nM | – | COc1ccc(-c2[nH]c3ncnc(Nc4cccc(Cl)c4)c3c2C)cc1 [Example 29, 4-(m-Chloroanilino)-5-methyl-6-(4-methoxyphenyl)-7H-pyrrolo[2,3-d]-pyrimidine] | –
1770 nM | – | COc1cccc(-c2cc3c(Nc4cccc(Cl)c4)ncnc3[nH]2)c1 [Example 30, 4-(m-Chloroanilino)-6-(3-methoxyphenyl)-7H-pyrrolo[2,3-d]pyrimidine] | –
13 nM | – | Clc1cccc(Nc2ncnc3[nH]c(-c4ccccc4)cc23)c1 [Example 28, 4-(m-Chloroanilino)-6-(phenyl)-7H-pyrrolo[2,3-d]pyrimidine] | –
350 nM | – | COc1cccc(Nc2ncnc3[nH]c4c(c23)CCCC4)c1 [Example 11, 4-(m-Methoxyanilino)-5,6-tetramethylene-7H-pyrrolo[2,3-d]pyrimidine] | –
550 nM | – | Cc1[nH]c2ncnc(Nc3cccc(F)c3)c2c1C [Example 3, 4-(m-Fluoroanilino)-5,6-dimethyl-7H-pyrrolo[2,3-d]pyrimidine] | –
25 nM | – | Cc1[nH]c2ncnc(Nc3cccc(Br)c3)c2c1C [Example 2, 4-(m-Bromoanilino)-5,6-dimethyl-7H-pyrrolo[2,3-d]pyrimidine] | –
33 nM | – | COc1ccc(OC)c(-c2cc3c(Nc4cccc(Cl)c4)ncnc3[nH]2)c1 [Example 27, 4-(m-Chloroanilino)-6-(2,5-dimethoxyphenyl)-7H-pyrrolo[2,3-d]-pyrimidine] | –
15 nM | – | COc1ccc(-c2cc3c(Nc4cccc(Cl)c4)ncnc3[nH]2)cc1 [Example 26, 4(m-Chloroanilino)-6-(4-methoxyphenyl)-7H-pyrrolo[2,3-d]pyrimidine] | –
19 nM | – | COc1ccccc1-c1cc2c(Nc3cccc(Cl)c3)ncnc2[nH]1 [Example 31, 4-(m-Chloroanilino)-6-(2-methoxyphenyl)-7H-pyrrolo[2,3-d]pyrimidine] | –

Further lines, the molecule ahead of its results:

SMILES | IC50 [1, 3] | IC50 [1, 4] [nM] | IC50 [2] [µM]
Cc1cccc(Nc2ncnc3[nH]c(C)c(C)c23)c1 [Example 5, 4-(m-Methylanilino)-5,6-dimethyl-7H-pyrrolo[2,3-d]pyrimidine] | 570 nM | – | –
Cc1ccc(Nc2ncnc3[nH]c4c(c23)CCCC4)cc1 [Example 22, 4-(4-Methylanilino)-5,6-tetramethylene-7H-pyrrolo[2,3-d]pyrimidine] | – | 110 | 13.9
Cc1[nH]c2ncnc(Nc3ccc(F)cc3)c2c1C [Example 20, 4-(p-Fluoroanilino)-5,6-dimethyl-7H-pyrrolo[2,3-d]pyrimidine] | – | 560 | 13.1
Cc1ccc(Nc2ncnc3[nH]c(C)c(C)c23)cc1 [Example 17, 4-(p-Methylanilino)-5,6-dimethyl-7H-pyrrolo[2,3-d]pyrimidine] | – | 1900 | 24.6
Cc1[nH]c2ncnc(Nc3cc(Cl)cc(Cl)c3)c2c1C [Example 4, 4-(m,m-Dichloroanilino)-5,6-dimethyl-7H-pyrrolo[2,3-d]pyrimidine] | 170 nM | – | –
FC(F)(F)c1cccc(Nc2ncnc3[nH]c4c(c23)CCCC4)c1 [Example 14, 4-(m-Trifluoromethylanilino)-5,6-tetramethylene-7H-pyrrolo[2,3-d]-pyrimidine] | 360 nM | – | –
Fc1cccc(Nc2ncnc3[nH]c4c(c23)CCCC4)c1 [Example 9, 4-(m-Fluoroanilino)-5,6-tetramethylene-7H-pyrrolo[2,3-d]pyrimidine] | 200 nM | – | –
Cc1[nH]c2ncnc(Nc3ccccc3F)c2c1C [Example 19, 4-(o-Fluoroanilino)-5,6-dimethyl-7H-pyrrolo[2,3-d]pyrimidine] | – | 1600 | 49.3
Clc1ccc(Nc2ncnc3[nH]c4c(c23)CCCC4)cc1Cl [Example 15, 4-(m,p-Dichloroanilino)-5,6-tetramethylene-7H-pyrrolo[2,3-d]pyrimidine] | 150 nM | – | –
Cc1cccc(Nc2ncnc3[nH]c4c(c23)CCCC4)c1 [Example 10, 4-(m-Methylanilino)-5,6-tetramethylene-7H-pyrrolo[2,3-d]pyrimidine] | 820 nM | – | –
Cc1[nH]c2ncnc(Nc3ccc(Cl)c(Cl)c3)c2c1C [Example 18, 4-(m,p-Dichloroanilino)-5,6-dimethyl-7H-pyrrolo[2,3.d]pyrimidine] | – | 70 | 34.8
Brc1cccc(Nc2ncnc3[nH]c(-c4ccccc4)c(-c4ccccc4)c23)c1 [Example 13, 4-(m-Bromoanilino)-5,6-diphenyl-7H-pyrrolo[2,3-d]pyrimidine] | 96 nM and 33 nM | – | –
Brc1cccc(Nc2ncnc3[nH]c4c(c23)CCCC4)c1 [Example 8, 4-(m-Bromoanilino)-5,6-tetramethylene-7H-pyrrolo[2,3-d]pyrimidine] | 46 nM | – | –
